Measurements reported in patent publication US12668600B2 (Kumquat Biosciences Inc., priority 2023, dated 2026).

Columns and labels:
Type in all cases: biochemical
KRAS G12D = target: T1, KRAS G12D (Homo sapiens, UniProt P01116, G12D); experiment: HTRF KRAS-SOS1 interaction assay, KRAS G12D; settings: binned ≤2 μM / >2 μM, read-out: Inhibition of KRAS G12D (IC50)
T1 construct: made in house; host or cells: E. coli, e.g. BL21 (DE3)
Procedure, shortened: (§1)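 Read-out: HTRF ratio 665/620 nm after ≥10 min incubation of compound with GST-KRAS/anti-GST-Eu and His-hSOS1/anti-6His-XL665. Duplicate dose series, 10 μM down to 0.01 μM. Buffer HEPES pH 7.4, NaCl, DTT, BSA, Igepal.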

KRAS WT = target: T2, KRAS WT (Homo sapiens, UniProt P01116); experiment: HTRF KRAS-SOS1 interaction assay, wildtype KRAS; settings: binned ≤2 μM / >2 μM, read-out: Inhibition of KRAS WT (IC50)
T2 construct: made in house; host or cells: E. coli, e.g. BL21 (DE3)
Procedure, shortened: as §1

KRAS G12V = target: T3, KRAS G12V (Homo sapiens, UniProt P01116, G12V); experiment: HTRF KRAS-SOS1 interaction assay, KRAS G12V; settings: binned ≤2 μM / >2 μM, read-out: Inhibition of KRAS G12V (IC50)
T3 construct: made in house; host or cells: E. coli, e.g. BL21 (DE3)
Procedure, shortened: as §1

KRAS G12S = target: T4, KRAS G12S (Homo sapiens, UniProt P01116, G12S); experiment: HTRF KRAS-SOS1 interaction assay, KRAS G12S; settings: binned ≤2 μM / >2 μM, read-out: Inhibition of KRAS G12S (IC50)
T4 construct: made in house; host or cells: E. coli, e.g. BL21 (DE3)
Procedure, shortened: as §1

T3 sequence (P01116 1-188 isoform P01116-2 G12V): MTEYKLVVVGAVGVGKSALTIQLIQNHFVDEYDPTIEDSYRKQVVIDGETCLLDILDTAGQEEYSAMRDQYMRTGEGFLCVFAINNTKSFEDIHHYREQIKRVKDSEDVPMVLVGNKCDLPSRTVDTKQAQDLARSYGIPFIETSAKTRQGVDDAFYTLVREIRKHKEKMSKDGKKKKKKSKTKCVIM
T2 sequence (P01116 1-188 isoform P01116-2): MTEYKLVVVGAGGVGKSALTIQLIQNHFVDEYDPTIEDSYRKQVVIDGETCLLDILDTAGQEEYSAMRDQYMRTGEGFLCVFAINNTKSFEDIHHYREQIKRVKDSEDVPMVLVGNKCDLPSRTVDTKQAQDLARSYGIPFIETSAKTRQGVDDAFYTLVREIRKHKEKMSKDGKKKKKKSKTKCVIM
T4 sequence (P01116 1-188 isoform P01116-2 G12S): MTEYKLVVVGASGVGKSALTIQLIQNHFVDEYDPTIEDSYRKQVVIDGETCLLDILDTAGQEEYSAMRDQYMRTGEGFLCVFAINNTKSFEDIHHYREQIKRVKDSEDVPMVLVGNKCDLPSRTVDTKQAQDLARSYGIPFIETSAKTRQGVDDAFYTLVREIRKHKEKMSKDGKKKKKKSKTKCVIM
T1 sequence (P01116 1-188 isoform P01116-2 G12D): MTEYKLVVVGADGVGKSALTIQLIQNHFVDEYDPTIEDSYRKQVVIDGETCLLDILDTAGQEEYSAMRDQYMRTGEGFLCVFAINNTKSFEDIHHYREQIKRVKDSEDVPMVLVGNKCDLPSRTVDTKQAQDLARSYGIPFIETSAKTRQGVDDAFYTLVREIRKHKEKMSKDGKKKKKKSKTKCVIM

| IC50 (KRAS G12D) | IC50 (KRAS WT) | IC50 (KRAS G12V) | IC50 (KRAS G12S) | Structure (SMILES) |
| --- | --- | --- | --- | --- |
| ≤ 2000 nM | ≤ 2000 nM | ≤ 2000 nM | ≤ 2000 nM | C[C@H](c1cccnc1N)N1CCOc2c(Br)c(-c3ccc(F)c4sc(N)c(C#N)c34)c(F)c3nc(OC[C@@]45CCCN4C[C@H](F)C5)nc1c23 (single isomer, unassigned) [Compound 858] |
| ≤ 2000 nM | ≤ 2000 nM | ≤ 2000 nM | ≤ 2000 nM | C[C@H](c1cc(Cl)cnc1N)N1CCOc2c(C(F)(F)F)c(-c3ccc(F)c4sc(N)c(C#N)c34)c(F)c3nc(OC[C@@]45CCCN4C[C@H](F)C5)nc1c23 (single isomer, unassigned) [Compound 766] |
| ≤ 2000 nM | ≤ 2000 nM | ≤ 2000 nM | ≤ 2000 nM | C[C@H](c1cccnc1N)N1CCOc2c(C(F)(F)F)c(-c3ccc(F)c4sc(N)c(C#N)c34)c(F)c3nc(OCC4(CN5[C@H](C)COC[C@@H]5C)CC4)nc1c23 (single isomer, unassigned) [Compound 763] |
| ≤ 2000 nM | ≤ 2000 nM | ≤ 2000 nM | ≤ 2000 nM | C#CC(F)(F)[C@H](c1cccnc1N)N1CCOc2c(Cl)c(-c3ccc(F)c4sc(N)c(C#N)c34)c(F)c3nc(OC[C@@]45CCCN4C[C@H](F)C5)nc1c23 [Compound 867, 2-amino-4-(4-((S)-1-(2-aminopyridin-3-yl)-2,2-difluorobut-3-yn-1-yl)-8-chloro-10-fluoro-2-(((2R,7aS)-2-fluorotetrahydro-1H-pyrrolizin-7a(5H)-yl)methoxy)-5,6-dihydro-4H-[1,4]oxazepino[5,6,7-de]quinazolin-9-yl)-7-fluorobenzo[b]thiophene-3-carbonitrile] |
| ≤ 2000 nM | ≤ 2000 nM | ≤ 2000 nM | ≤ 2000 nM | CO[C@H]1CCN(C)[C@@H]1[C@H](C)Oc1nc2c3c(c(C(F)(F)F)c(-c4ccc(F)c5sc(N)c(C#N)c45)c(F)c3n1)OCCN2[C@H](C)c1cccnc1N [Compound 665, 2-amino-4-(4-((R)-1-(2-aminopyridin-3-yl)ethyl)-10-fluoro-2-((S)-1-((2R,3S)-3-methoxy-1-methylpyrrolidin-2-yl)ethoxy)-8-(trifluoromethyl)-5,6-dihydro-4H-[1,4]oxazepino[5,6,7-de]quinazolin-9-yl)-7-fluorobenzo[b]thiophene-3-carbonitrile] |
| ≤ 2000 nM | ≤ 2000 nM | ≤ 2000 nM | ≤ 2000 nM | C[C@H](c1cccnc1N)N1CCOc2c(C(F)(F)F)c(-c3ccc(F)c4sc(N)c(C#N)c34)c(F)c3nc(OC[C@@]45CCCN4C[C@@]4(CC4(F)F)C5)nc1c23 (single isomer, unassigned) [Compound 725] |
| ≤ 2000 nM | ≤ 2000 nM | ≤ 2000 nM | ≤ 2000 nM | N#Cc1c(N)sc2c(F)ccc(-c3c(C(F)(F)F)c4c5c(nc(OC[C@@]67CCCN6C[C@H](F)C7)nc5c3F)N([C@H](CCC3COCCO3)c3cccnc3N)CCO4)c12 (mixture of isomers) [Compound 648, 2-amino-4-(4-((1R)-1-(2-aminopyridin-3-yl)-3-(1,4-dioxan-2-yl)propyl)-10-fluoro-2-(((2R,7aS)-2-fluorotetrahydro-1H-pyrrolizin-7a(5H)-yl)methoxy)-8-(trifluoromethyl)-5,6-dihydro-4H-[1,4]oxazepino[5,6,7-de]quinazolin-9-yl)-7-fluorobenzo[b]thiophene-3-carbonitrile] |
| ≤ 2000 nM | ≤ 2000 nM | ≤ 2000 nM | ≤ 2000 nM | N#Cc1c(N)sc2c(F)ccc(-c3c(C(F)(F)F)c4c5c(nc(OC[C@@]67CCCN6C[C@@]6(CC6(F)F)C7)nc5c3F)N([C@H](CCC(F)(F)F)c3cc(F)cnc3N)CCO4)c12 [Compound 617, 2-amino-4-(4-((R)-1-(2-amino-5-fluoropyridin-3-yl)-4,4,4-trifluorobutyl)-2-(((1S,7a′S)-2,2-difluorodihydro-1′H,3′H-spiro[cyclopropane-1,2′-pyrrolizin]-7a′(5′H)-yl)methoxy)-10-fluoro-8-(trifluoromethyl)-5,6-dihydro-4H-[1,4]oxazepino[5,6,7-de]quinazolin-9-yl)-7-fluorobenzo[b]thiophene-3-carbonitrile] |
| ≤ 2000 nM | ≤ 2000 nM | ≤ 2000 nM | ≤ 2000 nM | CC(=O)c1c(F)ccc2cc(O)cc(-c3nc4c5c(nc(OC[C@@]67CCCN6C[C@H](F)C7)nc5c3F)N(C(C)c3cccnc3N)CCO4)c12 (mixture of isomers) [Compound 744] |
| ≤ 2000 nM | ≤ 2000 nM | ≤ 2000 nM | ≤ 2000 nM | CC[S+]([O-])[C@@H]1CN2CCC[C@@]2(COc2nc3c4c(c(Cl)c(-c5ccc(F)c6sc(N)c(C#N)c56)c(F)c4n2)OCCN3[C@H](C)c2cccnc2N)C1 (mixture of isomers) [Compound 780, 2-amino-4-(4-((R)-1-(2-aminopyridin-3-yl)ethyl)-8-chloro-2-(((2S,7aS)-2-(ethylsulfinyl)tetrahydro-1H-pyrrolizin-7a(5H)-yl)methoxy)-10-fluoro-5,6-dihydro-4H-[1,4]oxazepino[5,6,7-de]quinazolin-9-yl)-7-fluorobenzo[b]thiophene-3-carbonitrile] |
| ≤ 2000 nM | ≤ 2000 nM | ≤ 2000 nM | ≤ 2000 nM | N#Cc1c(N)sc2c(F)ccc(-c3c(C(F)(F)F)c4c5c(nc(OC[C@@]67CCCN6C[C@H](F)C7)nc5c3F)N([C@H](CC3CCC3)c3cccnc3N)CCO4)c12 (single isomer, unassigned) [Compound 893] |
| ≤ 2000 nM | ≤ 2000 nM | ≤ 2000 nM | ≤ 2000 nM | C[C@H](c1cc(Cl)cnc1N)N1CCOc2c(C(F)(F)F)c(-c3ccc(F)c4sc(N)c(C#N)c34)c(F)c3nc(OCC4(CN5CCC6(CC5)CC6(F)F)CC4)nc1c23 [Compound 679, 2-amino-4-(4-((R)-1-(2-amino-5-chloropyridin-3-yl)ethyl)-2-((1-((1,1-difluoro-6-azaspiro[2.5]octan-6-yl)methyl)cyclopropyl)methoxy)-10-fluoro-8-(trifluoromethyl)-5,6-dihydro-4H-[1,4]oxazepino[5,6,7-de]quinazolin-9-yl)-7-fluorobenzo[b]thiophene-3-carbonitrile] |
| ≤ 2000 nM | ≤ 2000 nM | ≤ 2000 nM | ≤ 2000 nM | C[C@H](c1cc(F)cnc1N)N1CCOc2c(C(F)(F)F)c(-c3ccc(F)c4sc(N)c(C#N)c34)c(F)c3nc(OC[C@@]45CCCN4CC(=C(F)F)C5)nc1c23 [Compound 675, 2-amino-4-(4-((R)-1-(2-amino-5-fluoropyridin-3-yl)ethyl)-2-(((S)-2-(difluoromethylene)tetrahydro-1H-pyrrolizin-7a(5H)-yl)methoxy)-10-fluoro-8-(trifluoromethyl)-5,6-dihydro-4H-[1,4]oxazepino[5,6,7-de]quinazolin-9-yl)-7-fluorobenzo[b]thiophene-3-carbonitrile] |
| ≤ 2000 nM | ≤ 2000 nM | ≤ 2000 nM | ≤ 2000 nM | C[C@H](c1cccnc1F)N1CCOc2c(C(F)(F)F)c(-c3ccc(F)c4sc(N)c(C#N)c34)c(F)c3nc(OC[C@@]45CCCN4C[C@H](F)C5)nc1c23 [Compound 817, 2-amino-7-fluoro-4-(10-fluoro-4-((R)-1-(2-fluoropyridin-3-yl)ethyl)-2-(((2R,7aS)-2-fluorotetrahydro-1H-pyrrolizin-7a(5H)-yl)methoxy)-8-(trifluoromethyl)-5,6-dihydro-4H-[1,4]oxazepino[5,6,7-de]quinazolin-9-yl)benzo[b]thiophene-3-carbonitrile] |
| ≤ 2000 nM | ≤ 2000 nM | ≤ 2000 nM | ≤ 2000 nM | CCON=C(C)CC[C@H](c1cccnc1N)N1CCOc2c(C(F)(F)F)c(-c3ccc(F)c4sc(N)c(C#N)c34)c(F)c3nc(OC[C@@]45CCCN4C[C@H](F)C5)nc1c23 (mixture of isomers) [Compound 789, 2-amino-4-(4-((R)-1-(2-aminopyridin-3-yl)-4-(ethoxyimino)pentyl)-10-fluoro-2-(((2R,7aS)-2-fluorotetrahydro-1H-pyrrolizin-7a(5H)-yl)methoxy)-8-(trifluoromethyl)-5,6-dihydro-4H-[1,4]oxazepino[5,6,7-de]quinazolin-9-yl)-7-fluorobenzo[b]thiophene-3-carbonitrile] |
| ≤ 2000 nM | ≤ 2000 nM | ≤ 2000 nM | ≤ 2000 nM | Cc1c(F)c(N)cc(-c2nc3c4c(nc(OC[C@@H]5CCCN5C)nc4c2F)N([C@H](C)c2cccnc2N)CCO3)c1C(F)(F)F (single isomer, unassigned) [Compound 695] |
| > 2000 nM | > 2000 nM | > 2000 nM | > 2000 nM | CC(Oc1nc2c3c(c(Cl)c(-c4ccc(F)c5sc(N)c(C#N)c45)c(F)c3n1)OCCN2[C@H](C)c1cccnc1N)[C@@H]1CC(F)(F)CN1C (single isomer, unassigned) [Compound 659] |
| ≤ 2000 nM | ≤ 2000 nM | ≤ 2000 nM | ≤ 2000 nM | C[C@H](c1cccnc1C(F)F)N1CCOc2c(C(F)(F)F)c(-c3ccc(F)c4sc(N)c(C#N)c34)c(F)c3nc(OC[C@@]45CCCN4C[C@H](F)C5)nc1c23 [Compound 747, 2-amino-4-(4-((R)-1-(2-(difluoromethyl)pyridin-3-yl)ethyl)-10-fluoro-2-(((2R,7aS)-2-fluorotetrahydro-1H-pyrrolizin-7a(5H)-yl)methoxy)-8-(trifluoromethyl)-5,6-dihydro-4H-[1,4]oxazepino[5,6,7-de]quinazolin-9-yl)-7-fluorobenzo[b]thiophene-3-carbonitrile] |
